Experimental data: patent US20050112573A1, “Method of detecting toxic substance” (priority 2001, published 2005)

Tested on: yeast genes (level of expressed mRNA)
Assay: DNA chip analysis of expressed mRNA of yeast genes after 2 h culture with a toxic chemical substance
Format: cell-based, Saccharomyces cerevisiae S288C
Method in brief: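 S. cerevisiae S288C grown at 25° C in YPD; toxicant added at log phase at growth-inhibitory, non-lethal levels for 2 h, untreated cells as control. Poly(A) mRNA reverse-transcribed with Cy3/Cy5-dUTP, hybridized to whole-genome chip at 65° C >12 h; value is fluorescence ratio versus untreated.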

Substance: γ-hexachlorocyclohexane [(7)]
- The level of expressed mRNA in the presence of chemical substance/ (yeast gene YFL010C, ratio to control without chemical substance, 2 h culture): 1.5
- The level of expressed mRNA in the presence of chemical substance/ (yeast gene YFL024C, ratio to control without chemical substance, 2 h culture): 3.3
- The level of expressed mRNA in the presence of chemical substance/The level of expressed mRNA in the absence of chemical substance (yeast gene YFL028C): 2.0
- The level of expressed mRNA in the presence of chemical substance/ (yeast gene YFL032W, ratio to control without chemical substance, 2 h culture): 1.1
- The level of expressed mRNA in the presence of chemical substance/The level of expressed mRNA in the absence of chemical substance (yeast gene YFL043C): 1.8
- The level of expressed mRNA in the presence of chemical substance/in the absence of chemical substance (yeast gene YGL035C): 1.2
- The level of expressed mRNA in the presence of chemical substance/ (yeast gene YGL037C, ratio to control without chemical substance, 2 h culture): 2.9
- The level of expressed mRNA in the presence of chemical substance/ (yeast gene YGL047W, ratio to control without chemical substance, 2 h culture): 1.7
- The level of expressed mRNA in the presence of chemical substance/ (yeast gene YGL053W, ratio to control without chemical substance, 2 h culture): 3.7
- The level of expressed mRNA in the presence of chemical substance/ (yeast gene YGL121C, ratio to control without chemical substance, 2 h culture): 4.7
- The level of expressed mRNA in the presence of chemical substance/The level of expressed mRNA in the absence of chemical substance (yeast gene YGL158W): 1.3
- The level of expressed mRNA in the presence of chemical substance/ (yeast gene YGL199C, ratio to control without chemical substance, 2 h culture): 1.3
- The level of expressed mRNA in the presence of chemical substance/The level of expressed mRNA in the absence of chemical substance (yeast gene YGL229C): 2.2
- The level of expressed mRNA in the presence of chemical substance/ (yeast gene YGR101W, ratio to control without chemical substance, 2 h culture): 1.5
- The level of expressed mRNA in the presence of chemical substance/ (yeast gene YGR110W, ratio to control without chemical substance, 2 h culture): 1.7
- The level of expressed mRNA in the presence of chemical substance/ (yeast gene YGR130C, ratio to control without chemical substance, 2 h culture): 1.3
- The level of expressed mRNA in the presence of chemical substance/The level of expressed mRNA in the absence of chemical substance (yeast gene YGR136W): 1.5
- The level of expressed mRNA in the presence of chemical substance/ (yeast gene YGR154C, ratio to control without chemical substance, 2 h culture): 2.0
- The level of expressed mRNA in the presence of chemical substance/The level of expressed mRNA in the absence of chemical substance (yeast gene YGR189C): 0.6
- The level of expressed mRNA in the presence of chemical substance/The level of expressed mRNA in the absence of chemical substance (yeast gene YGR213C): 7.0
- The level of expressed mRNA in the presence of chemical substance/ (yeast gene YGR221C, ratio to control without chemical substance, 2 h culture): 1.2
- The level of expressed mRNA in the presence of chemical substance/The level of expressed mRNA in the absence of chemical substance (yeast gene YGR257C): 2.4
- The level of expressed mRNA in the presence of chemical substance/in the absence of chemical substance (yeast gene YGR287C): 2.2
- The level of expressed mRNA in the presence of chemical substance/The level of expressed mRNA in the absence of chemical substance (yeast gene YHR004C): 1.5
- The level of expressed mRNA in the presence of chemical substance/The level of expressed mRNA in the absence of chemical substance (yeast gene YHR071W): 1.0
- The level of expressed mRNA in the presence of chemical substance/ (yeast gene YHR138C, ratio to control without chemical substance, 2 h culture): 3.0
- The level of expressed mRNA in the presence of chemical substance/The level of expressed mRNA in the absence of chemical substance (yeast gene YHR139C): 1.5
- The level of expressed mRNA in the presence of chemical substance/The level of expressed mRNA in the absence of chemical substance (yeast gene YHR142W): 0.9
- The level of expressed mRNA in the presence of chemical substance/ (yeast gene YHR199C, ratio to control without chemical substance, 2 h culture): 1.1
- The level of expressed mRNA in the presence of chemical substance/ (yeast gene YIL023C, ratio to control without chemical): 1.2
- The level of expressed mRNA in the presence of chemical substance/ (yeast gene YIL041W, ratio to control without chemical substance, 2 h culture): 0.8
- The level of expressed mRNA in the presence of chemical substance/ (yeast gene YIL087C, ratio to control without chemical substance, 2 h culture): 1.8
- The level of expressed mRNA in the presence of chemical substance/The level of expressed mRNA in the absence of chemical substance (yeast gene YIL123W): 0.5
- The level of expressed mRNA in the presence of chemical substance/The level of expressed mRNA in the absence of chemical substance (yeast gene YIL140W): 0.5
- The level of expressed mRNA in the presence of chemical substance/ (yeast gene YJL057C, ratio to control without chemical substance, 2 h culture): 2.7
- The level of expressed mRNA in the presence of chemical substance/ (yeast gene YJL066C, ratio to control without chemical substance, 2 h culture): 1.6
- The level of expressed mRNA in the presence of chemical substance/in the absence of chemical substance (yeast gene YJL070C): 1.4
- The level of expressed mRNA in the presence of chemical substance/ (yeast gene YJL082W, ratio to control without chemical substance, 2 h culture): 0.4
- The level of expressed mRNA in the presence of chemical substance/The level of expressed mRNA in the absence of chemical substance (yeast gene YJL089W): 1.1
- The level of expressed mRNA in the presence of chemical substance/The level of expressed mRNA in the absence of chemical substance (yeast gene YJL116C): 0.8
- The level of expressed mRNA in the presence of chemical substance/ (yeast gene YJL151C, ratio to control without chemical substance, 2 h culture): 1.4
- The level of expressed mRNA in the presence of chemical substance/ (yeast gene YJL152W, ratio to control without chemical substance, 2 h culture): 1.2
- The level of expressed mRNA in the presence of chemical substance/ (yeast gene YJL161W, ratio to control without chemical substance, 2 h culture): 3.6
- The level of expressed mRNA in the presence of chemical substance/in the absence of chemical substance (yeast gene YJL167W): 1.5
- The level of expressed mRNA in the presence of chemical substance/ (yeast gene YJL171C, ratio to control without chemical substance, 2 h culture): 1.4
- The level of expressed mRNA in the presence of chemical substance/in the absence of chemical substance (yeast gene YJL216C): 1.5
- The level of expressed mRNA in the presence of chemical substance/The level of expressed mRNA in the absence of chemical substance (yeast gene YJR004C): 0.4
- The level of expressed mRNA in the presence of chemical substance/ (yeast gene YJR008W, ratio to control without chemical substance, 2 h culture): 2.9
- The level of expressed mRNA in the presence of chemical substance/ (yeast gene YJR054W, ratio to control without chemical): 0.9
- The level of expressed mRNA in the presence of chemical substance/The level of expressed mRNA in the absence of chemical substance (yeast gene YJR086W): 1.7
- The level of expressed mRNA in the presence of chemical substance/The level of expressed mRNA in the absence of chemical substance (yeast gene YKL008C): 1.4
- The level of expressed mRNA in the presence of chemical substance/The level of expressed mRNA in the absence of chemical substance (yeast gene YKL013C): 1.8
- The level of expressed mRNA in the presence of chemical substance/The level of expressed mRNA in the absence of chemical substance (yeast gene YKL039W): 2.0
- The level of expressed mRNA in the presence of chemical substance/The level of expressed mRNA in the absence of chemical substance (yeast gene YKL041W): 1.0
- The level of expressed mRNA in the presence of chemical substance/ (yeast gene YKL071W, ratio to control without chemical substance, 2 h culture): 3.7
- The level of expressed mRNA in the presence of chemical substance/ (yeast gene YKL086W, ratio to control without chemical): 0.7
